Among the data in US11932636B2, “RAD51 inhibitors” (Cyteir Therapeutics, Inc., priority 2019, dated 2024) are EC50 values, retold here.

One assay concerns Daudi cells (AID positive). In words: Compound primary screening: cell death in AID positive Daudi cells (Cell-Titer Glo, Day 7). The following applies: Homo sapiens, 168 h; Daudi cells, AID positive; cell death on Day 7, Cell-Titer Glo; read-out: Cellular activity in AID + (Daudi). The format is cell-based. Put shortly:
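AID-positive Daudi cells were seeded at 1250 cells per well and treated with serially diluted compound delivered from a DMSO/media master plate. Cultures were incubated at 37 °C, and cell death was measured on Day 7 with Cell-Titer Glo luminescence.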
`CC(C)OC(=O)N[C@H]1CC[C@@H](c2ncc(-c3ccc(Nc4ncc[nH]4)cc3S(=O)(=O)NC(C)(C)C)s2)CC1` [Compound 110, isopropyl cis-N-[4-[5-[2-(tert-butylsulfamoyl)-4-(1H-imidazol-2-ylamino)phenyl]thiazol-2-yl]cyclohexyl]carbamate]: the EC50 fell in the range of 100 to 1000 nM.

As to `CCNS(=O)(=O)c1cc(Nc2cc(C(C)C)ccn2)ccc1-c1cnc([C@H]2CC[C@H](NC(=O)OC(C)C)CC2)s1` [Compound 111, isopropyl trans-N-[4-[5-[2-(ethylsulfamoyl)-4-[(4-isopropyl-2-pyridyl)amino]phenyl]thiazol-2-yl]cyclohexyl]carbamate], the EC50 fell in the range of 100 to 1000 nM.

Take `CCNS(=O)(=O)c1cc(Nc2cccc(C(C)C)n2)ccc1-c1cnc([C@H]2CC[C@H](NC(=O)OC(C)C)CC2)s1` [Compound 112, isopropyl trans-N-[4-[5-[2-(ethylsulfamoyl)-4-[(6-isopropyl-2-pyridyl)amino]phenyl]thiazol-2-yl]cyclohexyl]carbamate]: the EC50 was less than 100 nM.

As to `CCNS(=O)(=O)c1cc(Nc2ccc(C(C)C)cn2)ccc1-c1cnc([C@H]2CC[C@H](NC(=O)OC(C)C)CC2)s1` [Compound 113, isopropyl trans-N-[4-[5-[2-(ethylsulfamoyl)-4-[(5-isopropyl-2-pyridyl)amino]phenyl]thiazol-2-yl]cyclohexyl]carbamate], the EC50 was less than 100 nM.

Take `CCNS(=O)(=O)c1cc(N2CC(OC(C)C)C2)ccc1-c1cnc([C@H]2CC[C@H](NC(=O)OC(C)C)CC2)s1` [Compound 114, isopropyl trans-N-[4-[5-[2-(ethylsulfamoyl)-4-[3-isopropoxyazetidin-1-yl]phenyl]thiazol-2-yl]cyclohexyl]carbamate]: the EC50 fell in the range of 100 to 1000 nM.

As to `CCNS(=O)(=O)c1cc(Nc2nnc(C(C)C)s2)ccc1-c1cnc(C2CCC(NC(=O)OC(C)C)CC2)s1` (stereo not drawn) [Compound 115, isopropyl trans-N-[4-[5-[2-(ethylsulfamoyl)-4-[(5-isopropyl-1,3,4-thiadiazol-2-y)amino]phenyl]thiazol-2-yl]cyclohexyl]carbamate], the EC50 was less than 100 nM.

On to `CCNS(=O)(=O)c1cc(NC2(C)COC2)ccc1-c1cnc([C@H]2CC[C@H](NC(=O)OC(C)C)CC2)s1` [Compound 116, isopropyl trans-N-[4-[5-[2-(ethylsulfamoyl)-4-[(3-methyloxetan-3-yl)amino]phenyl]thiazol-2-yl]cyclohexyl]carbamate], for which the EC50 is less than 100 nM.

With `CCNS(=O)(=O)c1cc(N(C)c2nccn2C)ccc1-c1cnc([C@H]2CC[C@H](NC(=O)OC(C)C)CC2)s1` [Compound 117, isopropyl trans-N-[4-[5-[2-(ethylsulfamoyl)-4-[methyl(1-methyl-1H-imidazol-2-yl)amino]phenyl]thiazol-2-yl]cyclohexyl]carbamate], the EC50 lay within 100 to 1000 nM.

On to `CCNS(=O)(=O)c1cc(Nc2nnco2)ccc1-c1cnc([C@H]2CC[C@H](NC(=O)OC(C)C)CC2)s1` [Compound 118, isopropyl trans-N-[4-[5-[2-(ethylsulfamoyl)-4-[(1,3,4-oxadiazol-2-yl)amino]phenyl]thiazol-2-yl]cyclohexyl]carbamate], for which the EC50 fell in the range of 100 to 1000 nM.

Turning to `CCNS(=O)(=O)c1cc(Nc2nncs2)ccc1-c1cnc([C@H]2CC[C@H](NC(=O)OC(C)C)CC2)s1` [Compound 119, isopropyl trans-N-[4-[5-[2-(ethylsulfamoyl)-4-[(1,3,4-thiadiazol-2-yl)amino]phenyl]thiazol-2-yl]cyclohexyl]carbamate], the EC50 was less than 100 nM.

Regarding `CCNS(=O)(=O)c1cc(Nc2cn[nH]c2)ccc1-c1cnc([C@H]2CC[C@H](NC(=O)OC(C)C)CC2)s1` [Compound 120, isopropyl trans-N-[4-[5-[2-(ethylsulfamoyl)-4-[(1H-pyrazol-4-yl)amino]phenyl]thiazol-2-yl]cyclohexyl]carbamate], the EC50 is less than 100 nM.

With `CCNS(=O)(=O)c1cc(Nc2ccn[nH]2)ccc1-c1cnc([C@H]2CC[C@H](NC(=O)OC(C)C)CC2)s1` [Compound 121, isopropyl trans-N-[4-[5-[2-(ethylsulfamoyl)-4-[(1H-pyrazol-5-yl)amino]phenyl]thiazol-2-yl]cyclohexyl]carbamate], the EC50 was less than 100 nM.

For `CCNS(=O)(=O)c1cc(Nc2cnccn2)ccc1-c1cnc([C@H]2CC[C@H](NC(=O)OC(C)C)CC2)s1` [Compound 122, isopropyl trans-N-[4-[5-[2-(ethylsulfamoyl)-4-[(pyrazin-2-yl)amino]phenyl]thiazol-2-yl]cyclohexyl]carbamate], the EC50 was less than 100 nM.

In the case of `CCNS(=O)(=O)c1cc(Nc2cccnn2)ccc1-c1cnc([C@H]2CC[C@H](NC(=O)OC(C)C)CC2)s1` [Compound 123, isopropyl trans-N-[4-[5-[2-(ethylsulfamoyl)-4-[(pyridazin-3-yl)amino]phenyl]thiazol-2-yl]cyclohexyl]carbamate], the EC50 was less than 100 nM.

For the compound `CCNS(=O)(=O)c1cc(Nc2ccncn2)ccc1-c1cnc([C@H]2CC[C@H](NC(=O)OC(C)C)CC2)s1` [Compound 124, isopropyl trans-N-[4-[5-[2-(ethylsulfamoyl)-4-[(pyrimidin-4-yl)amino]phenyl]thiazol-2-yl]cyclohexyl]carbamate], the EC50 was less than 100 nM.

With `CCNS(=O)(=O)c1cc(Nc2ccncc2)ccc1-c1cnc([C@H]2CC[C@H](NC(=O)OC(C)C)CC2)s1` [Compound 125, isopropyl trans-N-[4-[5-[2-(ethylsulfamoyl)-4-[(pyridin-4-yl)amino]phenyl]thiazol-2-yl]cyclohexyl]carbamate], the EC50 is less than 100 nM.

Regarding `CCNS(=O)(=O)c1cc(Nc2ccccn2)ccc1-c1cnc([C@H]2CC[C@H](NC(=O)OC(C)C)CC2)s1` [Compound 126, isopropyl trans-N-[4-[5-[2-(ethylsulfamoyl)-4-[(pyridin-2-yl)amino]phenyl]thiazol-2-yl]cyclohexyl]carbamate], the EC50 was less than 100 nM.

Take `CCNS(=O)(=O)c1cc(Nc2ncccn2)ccc1-c1cnc([C@H]2CC[C@H](NC(=O)OC(C)C)CC2)s1` [Compound 127, isopropyl trans-N-[4-[5-[2-(ethylsulfamoyl)-4-[(pyrimidin-2-yl)amino]phenyl]thiazol-2-yl]cyclohexyl]carbamate]: the EC50 was 100 to 1000 nM.

For `CCNS(=O)(=O)c1cc(Nc2cccnc2)ccc1-c1cnc([C@H]2CC[C@H](NC(=O)OC(C)C)CC2)s1` [Compound 128, isopropyl trans-N-[4-[5-[2-(ethylsulfamoyl)-4-[(pyridin-3-yl)amino]phenyl]thiazol-2-yl]cyclohexyl]carbamate], the EC50 was less than 100 nM.

Take `CCNS(=O)(=O)c1cc(Nc2ccnn2C(C)C)ccc1-c1cnc([C@H]2CC[C@H](NC(=O)OC(C)C)CC2)s1` [Compound 129, isopropyl trans-N-[4-[5-[2-(ethylsulfamoyl)-4-[(1-isopropyl-1H-pyrazol-5-yl)amino]phenyl]thiazol-2-yl]cyclohexyl]carbamate]: the EC50 was less than 100 nM.

The assay is the same for the next values; noted with them: Homo sapiens, Daudi, 168 h, read-out: Cellular activity in AID + (Daudi).
Turning to `CCNS(=O)(=O)c1cc(Nc2ncc[nH]2)ccc1-c1cnc([C@H]2CC[C@H](NC(=O)OC3CC3)CC2)s1` [Compound 109, cyclopropyl trans-N-[4-[5-[2-(ethylsulfamoyl)-4-(1H-imidazol-2-ylamino)phenyl]thiazol-2-yl]cyclohexyl]carbamate], the EC50 lay in the range of 100 to 1000 nM.
